Assay results as given in article PMC6385122, “Design and Synthesis of Arylamidine Derivatives as Serotonin/Norepinephrine Dual Reuptake Inhibitors” (Molecules, 2019).
Where a name gives a salt, the structure may show the parent alone.

Columns and labels:
[1] = biological target: T1, 5-HT reuptake (5-HT transporter) (Rattus norvegicus, UniProt P31652); experiment: Inhibition of 5-HT reuptake in rat brain synaptosome (3H-5-HT uptake); format: biochemical; conditions: 10 μM, read-out: 5-HT reuptake percent inhibition
T1 construct: from tissue; host or cells: Wistar rat brain (procerebrum; crude synaptosomal supernatant)
T1 sequence (P31652 whole entry): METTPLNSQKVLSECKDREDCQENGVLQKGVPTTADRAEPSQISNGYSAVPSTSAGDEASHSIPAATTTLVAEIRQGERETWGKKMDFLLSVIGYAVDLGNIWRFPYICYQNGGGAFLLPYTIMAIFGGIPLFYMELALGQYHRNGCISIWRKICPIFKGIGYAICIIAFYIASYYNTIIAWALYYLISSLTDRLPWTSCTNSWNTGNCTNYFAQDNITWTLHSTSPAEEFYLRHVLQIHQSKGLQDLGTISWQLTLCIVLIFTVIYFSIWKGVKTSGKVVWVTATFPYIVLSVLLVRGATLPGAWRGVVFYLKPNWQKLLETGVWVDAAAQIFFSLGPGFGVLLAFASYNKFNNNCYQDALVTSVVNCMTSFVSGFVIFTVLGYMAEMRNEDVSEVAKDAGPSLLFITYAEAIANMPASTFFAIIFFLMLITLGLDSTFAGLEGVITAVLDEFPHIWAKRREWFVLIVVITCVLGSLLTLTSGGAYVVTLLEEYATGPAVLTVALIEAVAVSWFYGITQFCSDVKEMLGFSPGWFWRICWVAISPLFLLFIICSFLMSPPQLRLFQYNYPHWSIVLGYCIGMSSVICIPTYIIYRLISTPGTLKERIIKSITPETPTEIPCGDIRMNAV
Description: (§1) All the target compounds were evaluated for their inhibitory activity against the reuptake of 5-HT and NE at the cellular level. Rat brain tissue was used for the uptake test, which included ^3H-5-HT and ^3H-NE [15]. 1-[7,8-^3H]-Noradrenaline and 5-hydroxy-[^3H]-tryptamine trifluoroacetate were obtained from Amersham Corporation.
(§2) Adult male Wistar rats were used. Animals were killed by decapitation and the whole brain, with the exception of the brainstem and cerebellum, was quickly removed. The procerebrum region was prepared, weighed, and homogenized in 10 volumes of ice-cold 0.32 mol/L sucrose solution using a glass homogenizer. The homogenate was centrifuged at 1000× g and 4 °C for 10 min. The supernatant was decanted and used for the uptake experiments. […] For each assay, three tubes were incubated with the vehicle (20 µL) at 0 °C in an ice bath. After incubation, the tubes were immediately filtered with a cell harvester. The fiberglass filter membrane was washed three times with ice-cold saline, placed in a scintillation vial, and counted in liquid scintillation cocktail (4 mL). Active uptake was the difference between the counts per minute at 37 and 0 °C. The percent inhibition at each drug concentration was the mean of three measurements.

[2] = biological target: T2, NE reuptake (NE transporter) (Rattus norvegicus, UniProt Q63380); experiment: Inhibition of NE reuptake in rat brain synaptosome (3H-NE uptake); format: biochemical; conditions: 10 μM, read-out: NE reuptake percent inhibition
T2 construct: from tissue; host or cells: Wistar rat brain (procerebrum; crude synaptosomal supernatant)
T2 sequence (Q63380 1-617): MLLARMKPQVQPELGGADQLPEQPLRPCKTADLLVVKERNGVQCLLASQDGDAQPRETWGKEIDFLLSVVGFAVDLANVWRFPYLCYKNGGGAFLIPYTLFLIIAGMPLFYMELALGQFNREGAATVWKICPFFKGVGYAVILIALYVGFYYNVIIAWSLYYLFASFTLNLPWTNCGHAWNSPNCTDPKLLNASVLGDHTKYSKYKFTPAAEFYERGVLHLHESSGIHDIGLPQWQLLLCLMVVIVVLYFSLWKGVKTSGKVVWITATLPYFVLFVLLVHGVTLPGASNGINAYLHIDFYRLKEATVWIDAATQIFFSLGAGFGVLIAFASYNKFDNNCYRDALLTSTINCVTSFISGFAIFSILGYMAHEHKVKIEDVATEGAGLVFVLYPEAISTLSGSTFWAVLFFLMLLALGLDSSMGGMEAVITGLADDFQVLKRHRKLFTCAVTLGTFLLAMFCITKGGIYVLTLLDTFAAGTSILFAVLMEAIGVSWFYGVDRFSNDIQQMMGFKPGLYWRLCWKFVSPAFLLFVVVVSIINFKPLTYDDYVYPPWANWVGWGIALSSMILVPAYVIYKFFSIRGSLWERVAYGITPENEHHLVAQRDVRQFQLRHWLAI
Description: as §1, §2

| melting point [°C] | inhibition at 10 µM [1] [%] | inhibition at 10 µM [2] [%] | Structure (SMILES) |
| --- | --- | --- | --- |
| 230 to 231 | – | – | O=[N+]([O-])c1ccc(/C(=N\Cc2ccccc2)N2CCNCC2)cc1 (as salt: hydrochloride) [Compound I-2, (E)-N-((4-Nitrophenyl)(piperazin-1-yl)methylene)-1-phenylmethanaminehydrochloride] |
| 142 to 144 | – | – | Clc1ccccc1/C(=N\Cc1ccccc1)N1CCNCC1 (as salt: hydrochloride) [Compound I-3, (E)-N-((2-Chlorophenyl)(piperazin-1-yl)methylene)-1-phenylmethanaminehydrochloride] |
| 235 to 237 | – | – | Clc1cccc(/C(=N\Cc2ccccc2)N2CCNCC2)c1 (as salt: hydrochloride) [Compound I-4, (E)-N-((3-Chlorophenyl)(piperazin-1-yl)methylene)-1-phenylmethanaminehydrochloride] |
| 182 to 184 | – | – | Clc1ccc(/C(=N\Cc2ccccc2)N2CCNCC2)cc1 (as salt: hydrochloride) [Compound I-5, (E)-N-((4-Chlorophenyl)(piperazin-1-yl)methylene)-1-phenylmethanaminehydrochloride] |
| 220 to 222 | – | – | Fc1ccc(/C(=N\Cc2ccccc2)N2CCNCC2)cc1 (as salt: hydrochloride) [Compound I-6, (E)-N-((4-Fluorophenyl)(piperazin-1-yl)methylene)-1-phenylmethanaminehydrochloride] |
| – | 38 | 66 | O=[N+]([O-])c1ccc(/C(=N\Cc2ccccc2)N2CCNCC2)cc1 [Compound I-2, (E)-N-((4-Nitrophenyl)(piperazin-1-yl)methylene)-1-phenylmethanaminehydrochloride] |
| – | 48 | 65 | Clc1ccccc1/C(=N\Cc1ccccc1)N1CCNCC1 [Compound I-3, (E)-N-((2-Chlorophenyl)(piperazin-1-yl)methylene)-1-phenylmethanaminehydrochloride] |
| – | 58 | 63 | Clc1cccc(/C(=N\Cc2ccccc2)N2CCNCC2)c1 [Compound I-4, (E)-N-((3-Chlorophenyl)(piperazin-1-yl)methylene)-1-phenylmethanaminehydrochloride] |
| – | 47 | 57 | Clc1ccc(/C(=N\Cc2ccccc2)N2CCNCC2)cc1 [Compound I-5, (E)-N-((4-Chlorophenyl)(piperazin-1-yl)methylene)-1-phenylmethanaminehydrochloride] |
| – | 17 | 39 | Fc1ccc(/C(=N\Cc2ccccc2)N2CCNCC2)cc1 [Compound I-6, (E)-N-((4-Fluorophenyl)(piperazin-1-yl)methylene)-1-phenylmethanaminehydrochloride] |
| – | 38 | 35 | Fc1ccccc1/C(=N\Cc1ccccc1)N1CCNCC1 [Compound I-7, (E)-N-((2-Fluorophenyl)(piperazin-1-yl)methylene)-1-phenylmethanaminehydrochloride] |
| – | 54 | 67 | N#Cc1ccc(/C(=N\Cc2ccccc2)N2CCNCC2)cc1 [Compound I-8, (E)-4-((Benzylimino)(piperazin-1-yl)methyl)benzonitrilehydrochloride] |
| – | 65 | 51 | N#Cc1cccc(/C(=N\Cc2ccccc2)N2CCNCC2)c1 [Compound I-9, (E)-3-((Benzylimino)(piperazin-1-yl)methyl)benzonitrilehydrochloride] |
| – | 61 | 47 | Cc1ccc(/C(=N\Cc2ccccc2)N2CCNCC2)cc1 [Compound I-10, (E)-1-Phenyl-N-(piperazin-1-yl(p-tolyl)methylene)methanaminehydrochloride] |
| – | 50 | 49 | O=[N+]([O-])c1ccc(/C(=N\Cc2ccccc2)N2CCNCC2)c(Cl)c1 [Compound I-11, (E)-N-((2-Chloro-4-nitrophenyl)(piperazin-1-yl)methylene)-1-phenylmethanaminehydrochloride] |
| – | 51 | 81 | O=[N+]([O-])c1ccc(/C(=N\Cc2ccc(Cl)cc2)N2CCNCC2)cc1 [Compound I-12, (E)-1-(4-Chlorophenyl)-N-((4-nitrophenyl)(piperazin-1-yl)methylene)methanaminehydrochloride] |
| – | 67 | 84 | Clc1ccc(C/N=C(\c2ccccc2Cl)N2CCNCC2)cc1 [Compound I-13, (E)-1-(4-Chlorophenyl)-N-((2-chlorophenyl)(piperazin-1-yl)methylene)methanaminehydrochloride] |

| melting point [°C] | inhibition at 10 µM [1] [%] | inhibition at 10 µM [2] [%] | Structure (SMILES) |
| --- | --- | --- | --- |
| – | 76 | 60 | Clc1ccc(C/N=C(\c2cccc(Cl)c2)N2CCNCC2)cc1 [Compound I-14, (E)-1-(4-Chlorophenyl)-N-((3-chlorophenyl)(piperazin-1-yl)methylene)methanaminehydrochloride] |
| – | 48 | 68 | Clc1ccc(C/N=C(\c2ccc(Cl)cc2)N2CCNCC2)cc1 [Compound I-15, (E)-1-(4-Chlorophenyl)-N-((4-chlorophenyl)(piperazin-1-yl)methylene)methanaminehydrochloride] |
| – | 45 | 26 | Fc1ccc(/C(=N\Cc2ccc(Cl)cc2)N2CCNCC2)cc1 [Compound I-16, (E)-1-(4-Chlorophenyl)-N-((4-fluorophenyl)(piperazin-1-yl)methylene)methanaminehydrochloride] |
| – | 43 | 27 | Fc1ccccc1/C(=N\Cc1ccc(Cl)cc1)N1CCNCC1 [Compound I-17, (E)-1-(4-Chlorophenyl)-N-((2-fluorophenyl)(piperazin-1-yl)methylene)methanaminehydrochloride] |
| – | 75 | 63 | N#Cc1ccc(/C(=N\Cc2ccc(Cl)cc2)N2CCNCC2)cc1 [Compound I-18, (E)-1-(4-Chlorophenyl)-N-((4-cyanophenyl)(piperazin-1-yl)methylene)methanaminehydrochloride] |
| – | 72 | 35 | Cc1ccc(/C(=N\Cc2ccc(Cl)cc2)N2CCNCC2)cc1 [Compound I-20, (E)-1-(4-Chlorophenyl)-N-(piperazin-1-yl(p-tolyl)methylene)methanaminehydrochloride] |
| – | 34 | 57 | COc1ccc(C/N=C(\c2ccc([N+](=O)[O-])cc2)N2CCNCC2)cc1 [Compound I-21, (E)-1-(4-Methoxyphenyl)-N-((4-nitrophenyl)(piperazin-1-yl)methylene)methanaminehydrochloride] |
| – | 80 | 67 | c1ccc(/C(=N\Cc2cccc3ccccc23)N2CCNCC2)cc1 [II-1, (E)-1-(Naphthalen-1-yl)-N-(phenyl(piperazin-1-yl)methylene)methanaminehydrochloride] |
| – | 57 | 52 | O=[N+]([O-])c1ccc(/C(=N\Cc2cccc3ccccc23)N2CCNCC2)cc1 [II-2, (E)-1-(Naphthalen-1-yl)-N-((4-nitrophenyl)(piperazin-1-yl)methylene)methanaminehydrochloride] |
| – | 84 | 76 | Fc1ccc(/C(=N\Cc2cccc3ccccc23)N2CCNCC2)cc1 [II-3, (E)-N-((4-Fluorophenyl)(piperazin-1-yl)methylene)-1-(naphthalen-1-yl)methanaminehydrochloride] |
| – | 65 | 75 | Clc1cccc(/C(=N\Cc2cccc3ccccc23)N2CCNCC2)c1 [II-6, (E)-N-((3-Chlorophenyl)(piperazin-1-yl)methylene)-1-(naphthalen-1-yl)methanaminehydrochloride] |
| – | 62 | 59 | Clc1ccc(/C(=N\Cc2cccc3ccccc23)N2CCNCC2)cc1 [II-7, (E)-N-((4-Chlorophenyl)(piperazin-1-yl)methylene)-1-(naphthalen-1-yl)methanaminehydrochloride] |
| – | 70 | 46 | N#Cc1ccc(/C(=N\Cc2cccc3ccccc23)N2CCNCC2)cc1 [II-8, (E)-4-(((Naphthalen-1-ylmethyl)imino)(piperazin-1-yl)methyl)benzonitrilehydrochloride] |
| – | 88 | 54 | N#Cc1cccc(/C(=N\Cc2cccc3ccccc23)N2CCNCC2)c1 [II-9, (E)-3-(((Naphthalen-1-ylmethyl)imino)(piperazin-1-yl)methyl)benzonitrilehydrochloride] |
| – | 82 | 63 | Cc1ccc(/C(=N\Cc2cccc3ccccc23)N2CCNCC2)cc1 [II-10, (E)-1-(Naphthalen-1-yl)-N-(piperazin-1-yl(p-tolyl)methylene)methanaminehydrochloride] |
| – | 73 | 66 | O=[N+]([O-])c1cccc2c(/C(=N\Cc3ccccc3)N3CCNCC3)cccc12 [III-1, (E)-N-((5-Nitronaphthalen-1-yl)(piperazin-1-yl)methylene)-1-phenylmethanaminehydrochloride] |
